Target: T1, human RORgT (Homo sapiens, UniProt P51449)
T1 construct: expressed in transfected cells
T1 sequence (P51449 267-516): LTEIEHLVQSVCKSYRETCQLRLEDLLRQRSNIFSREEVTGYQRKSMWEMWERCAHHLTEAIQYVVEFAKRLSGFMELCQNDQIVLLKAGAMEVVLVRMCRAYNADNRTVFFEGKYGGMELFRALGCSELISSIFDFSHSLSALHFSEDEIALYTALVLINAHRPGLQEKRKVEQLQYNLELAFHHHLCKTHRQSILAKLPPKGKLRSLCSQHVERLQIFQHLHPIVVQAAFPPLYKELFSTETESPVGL
Assay: RORgT Gal4 Luciferase Reporter Gene Assay
Type: cell-based
Conditions: engineered Jurkat cells overexpressing RORgT (LBD or full length) fused with Gal4 Luc reporter; 18 hours at 37° C.; luminescence
Method in brief: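 Jurkat cells expressing Gal4 Luc with either RORgT LBD (aa267-516) or full-length human RORgT, 10,000 cells/well, treated with compound (40 µM to 0.67 nM final, 3-fold dilutions) for 18 h at 37° C. Steady-Glo luminescence read; inhibition of constitutive activity as % signal-window reduction relative to a control compound.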

| Structure (SMILES) | EC50 |
| --- | --- |
| O=C(C1CCS(=O)(=O)CC1)N1CC[C@@]2(S(=O)(=O)c3ccc(F)cc3)c3ccc(OCc4cc(F)c(F)cc4Cl)cc3CC[C@@H]12 [Example 152, 4-[(3aR,9bR)-7-[(2-chloro-4,5-difluorophenyl)methoxy]-9b-(4-fluorobenzenesulfonyl)-1H,2H,3H,3aH,4H,5H,9bH-benzo[e]indole-3-carbonyl]-1λ^6-thiane-1,1-dione] | 0.015 µM |
| O=C(C1CCS(=O)(=O)CC1)N1CC[C@@]2(S(=O)(=O)c3ccc(F)cc3)c3ccc(OCc4cccc(Cl)c4)cc3CC[C@@H]12 [Example 153, 4-[(3aR,9bR)-7-[(3-chlorophenyl)methoxy]-9b-(4-fluorobenzenesulfonyl)-1H,2H,3H,3aH,4H,5H,9bH-benzo[e]indole-3-carbonyl]-1λ^6-thiane-1,1-dione] | 0.014 µM |
| NS(=O)(=O)CC(=O)N1CC[C@@]2(S(=O)(=O)c3ccc(F)cc3)c3ccc(OCc4c(F)cccc4Cl)cc3CC[C@@H]12 [Example 154, 2-[(3aR,9bR)-7-[(2-chloro-6-fluorophenyl)methoxy]-9b-(4-fluorobenzenesulfonyl)-1H,2H,3H,3aH,4H,5H,9bH-benzo[e]indol-3-yl]-2-1 oxoethane-1-sulfonamide] | 0.058 µM |
| N#CCCN1C(=O)CC[C@H]1C(=O)N1CC[C@@]2(S(=O)(=O)c3ccc(F)cc3)c3ccc(OCc4c(F)cccc4C(F)(F)F)cc3CC[C@@H]12 [Example 155, 3-[(2S)-2-[(3aR,9bR)-7-{[2-fluoro-6-(trifluoromethyl)phenyl]methoxy}-9b-(4-fluorobenzenesulfonyl)-1H,2H,3H,3aH,4H,5H,9bH-benzo[e]indole-3-carbonyl]-5-oxopyrrolidin-1-yl]propanenitrile] | 0.0043 µM |
| N#CCCN1C(=O)CC[C@H]1C(=O)N1CC[C@@]2(S(=O)(=O)c3ccc(F)cc3)c3ccc(OCc4c(Cl)cccc4Cl)cc3CC[C@@H]12 [Example 156, 3-[(2S)-2-[(3aR,9bR)-7-[(2,6-dichlorophenyl)methoxy]-9b-(4-fluorobenzenesulfonyl)-1H,2H,3H,3aH,4H,5H,9bH-benzo[e]indole-3-carbonyl]-5-oxopyrrolidin-1-yl]propanenitrile] | 0.011 µM |
| N#CCCN1C(=O)CC[C@H]1C(=O)N1CC[C@@]2(S(=O)(=O)c3ccc(F)cc3)c3ccc(OCc4cc(Cl)ccc4Cl)cc3CC[C@@H]12 [Example 157, 3-[(2S)-2-[(3aR,9bR)-7-[(2,5-dichlorophenyl)methoxy]-9b-(4-fluorobenzenesulfonyl)-1H,2H,3H,3aH,4H,5H,9bH-benzo[e]indole-3-carbonyl]-5-oxopyrrolidin-l-yl]propanenitrile] | 0.0043 µM |
| N#CCCN1C(=O)CC[C@H]1C(=O)N1CC[C@@]2(S(=O)(=O)c3ccc(F)cc3)c3ccc(OCc4cc(F)c(F)cc4Cl)cc3CC[C@@H]12 [Example 158, 3-[(2S)-2-[(3aR,9bR)-7-[(2-chloro-4,5-difluorophenyl)methoxy]-9b-(4-fluorobenzenesulfonyl)-1H,2H,3H,3aH,4H,5H,9bH-benzo[e]indole-3-carbonyl]-5-oxopyrrolidin-l-yl]propanenitrile] | 0.012 µM |
| O=C(O)[C@H]1CC[C@H](C(=O)N2CC[C@@]3(S(=O)(=O)c4ccc(F)cc4)c4ccc(CCc5c(Cl)cccc5Cl)cc4CC[C@@H]23)CC1 [Example 159, (1r,4r)-4-[(3aR,9bR)-7-[2-(2,6-dichlorophenyl)ethyl]-9b-(4-fluorobenzenesulfonyl)-1H,2H,3H,3aH,4H,5H,9bH-benzo[e]indole-3-carbonyl]cyclohexane-1-carboxylic acid] | 0.0011 µM |
| N#CCCN1C(=O)CC[C@H]1C(=O)N1CC[C@@]2(S(=O)(=O)c3ccc(F)cc3)c3ccc(OCc4c(F)cccc4Cl)cc3CC[C@@H]12 [Example 160, 3-[(2S)-2-[(3aR,9bR)-7-[(2-chloro-6-fluorophenyl)methoxy]-9b-(4-fluorobenzenesulfonyl)-1H,2H,3H,3aH,4H,5H,9bH-benzo[e]indole-3-carbonyl]-5-oxopyrrolidin-l-yl]propanenitrile] | 0.01 µM |
| O=C(C1CCS(=O)(=O)CC1)N1CC[C@@]2(S(=O)(=O)c3ccc(F)cc3)c3ccc(CCc4c(Cl)cccc4Cl)cc3CC[C@@H]12 [Example 161, 4-[(3aR,9bR)-7-[2-(2,6-dichlorophenyl)ethyl]-9b-(4-fluorobenzenesulfonyl)-1H,2H,3H,3aH,4H,5H,9bH-benzo[e]indole-3-carbonyl]-1λ^6-thiane-1,1-dione] | 0.0058 µM |
| NC(=O)N1CCC(C(=O)N2CC[C@@]3(S(=O)(=O)c4ccc(F)cc4)c4ccc(CCc5c(Cl)cccc5Cl)cc4CC[C@@H]23)CC1 [Example 162, 4-[(3aR,9bR)-7-[2-(2,6-dichlorophenyl)ethyl]-9b-(4-fluorobenzenesulfonyl)-1H,2H,3H,3aH,4H5H,9bH-benzo[e]indole-3-carbonyl]piperidine-1-carboxamide] | 0.0081 µM |
| O=C(C1CCS(=O)(=O)C1)N1CC[C@@]2(S(=O)(=O)c3ccc(F)cc3)c3ccc(OCc4c(F)cccc4Cl)cc3CC[C@@H]12 (stereo partly drawn) [Example 163, 3-[(3aR,9bR)-7-[(2-chloro-6-fluorophenyl)methoxy]-9b-(4-fluorobenzenesulfonyl)-1H,2H,3H,3aH,4H,5H,9bH-benzo[e]indole-3-carbonyl]-1λ^6-thiolane-1,1-dione] | 0.012 µM |
| CS(=O)(=O)N1CCC(C(=O)N2CC[C@@]3(S(=O)(=O)c4ccc(F)cc4)c4ccc(OCc5c(F)cccc5Cl)cc4CC[C@@H]23)CC1 [Example 164, 4-[(3aR,9bR)-7-[(2-chloro-6-fluorophenyl)methoxy]-9b-(4-fluorobenzenesulfonyl)-1H,2H,3H,3aH,4H,5H,9bH-benzo[e]indole-3-carbonyl]-1-methanesulfonylpiperidine] | 0.024 µM |
| O=C(CN1CCS(=O)(=O)CC1)N1CC[C@@]2(S(=O)(=O)c3ccc(F)cc3)c3ccc(OCc4c(F)cccc4Cl)cc3CC[C@@H]12 [Example 165, 4-{2-[(3aR,9bR)-7-[(2-chloro-6-fluorophenyl)methoxy]-9b-(4-fluorobenzenesulfonyl)-1H,2H,3H,3aH,4H,5H,9bH-benzo[e]indol-3-yl]-2-oxoethyl}-1λ^6-thiomorpholine-1,1-dione] | 0.011 µM |
| O=C(C1CCS(=O)(=O)CC1)N1CC[C@@]2(S(=O)(=O)c3ccc(F)cc3)c3ccc(OCc4c(F)cccc4Cl)cc3CC[C@@H]12 [Example 166, 4-[(3aR,9bR)-7-[(2-chloro-6-fluorophenyl)methoxy]-9b-(4-fluorobenzenesulfonyl)-1H,2H,3H,3aH,4H,5H,9bH-benzo[e]indole-3-carbonyl]-1λ^6-thiane-1,1-dione] | 0.0078 µM |
| CC(=O)N1CCC(C(=O)N2CC[C@@]3(S(=O)(=O)c4ccc(F)cc4)c4ccc(OCc5c(F)cccc5Cl)cc4CC[C@@H]23)CC1 [Example 167, 1-{4-[(3aR,9bR)-7-[(2-chloro-6-fluorophenyl)methoxy]-9b-(4-fluorobenzenesulfonyl)-1H,2H,3H,3aH,4H,5H,9bH-benzo[e]indole-3-carbonyl]piperidin-1-yl}ethan-1-one] | 0.013 µM |
| COC(=O)[C@H]1CC[C@H](C(=O)N2CC[C@@]3(S(=O)(=O)c4ccc(F)cc4)c4ccc(OCc5c(Cl)cccc5Cl)cc4CC[C@@H]23)CC1 [Example 169, methyl(1r,4r)-4-[(3aR,9bR)-7-[(2,6-dichlorophenyl)methoxy]-9b-(4-fluorobenzenesulfonyl)-1H,2H,3H,3aH,4H,5H,9bH-benzo[e]indole-3-carbonyl]cyclohexane-1-carboxylate] | 0.037 µM |
| O=C(C1CCS(=O)(=O)C1)N1CC[C@@]2(S(=O)(=O)c3ccc(F)cc3)c3ccc(OCc4c(Cl)cccc4Cl)cc3CC[C@@H]12 (stereo partly drawn) [Example 170, 3-[(3aR,9bR)-7-[(2,6-dichlorophenyl)methoxy]-9b-(4-fluorobenzenesulfonyl)-1H,2H,3H,3aH,4H,5H,9bH-benzo[e]indole-3-carbonyl]-1λ^6-thiolane-1,1-dione] | 0.014 µM |
| CN1CCC(C(=O)N2CC[C@@]3(S(=O)(=O)c4ccc(F)cc4)c4ccc(OCc5c(Cl)cccc5Cl)cc4CC[C@@H]23)CC1 [Example 171, 4-[(3aR,9bR)-7-[(2,6-dichlorophenyl)methoxy]-9b-(4-fluorobenzenesulfonyl)-1H,2H,3H,3aH,4H,5H,9bH-benzo[e]indole-3-carbonyl]-1-methylpiperidine] | 0.113 µM |
| NC(=O)N1CCC(C(=O)N2CC[C@@]3(S(=O)(=O)c4ccc(F)cc4)c4ccc(OCc5c(Cl)cccc5Cl)cc4CC[C@@H]23)CC1 [Example 172, 4-[(3aR,9bR)-7-[(2,6-dichlorophenyl)methoxy]-9b-(4-fluorobenzenesulfonyl)-1H,2H,3H,3aH,4H,5H,9bH-benzo[e]indole-3-carbonyl]piperidine-1-carboxamide] | 0.019 µM |
| O=C(CN1CCS(=O)(=O)CC1)N1CC[C@@]2(S(=O)(=O)c3ccc(F)cc3)c3ccc(OCc4c(Cl)cccc4Cl)cc3CC[C@@H]12 [Example 173, 4-{2-[(3aR,9bR)-7-[(2,6-dichlorophenyl)methoxy]-9b-(4-fluorobenzenesulfonyl)-1H,2H,3H,3aH,4H,5H,9bH-benzo[e]indol-3-yl]-2-oxoethyl}-1λ^6-thiomorpholine-1,1-dione] | 0.014 µM |
| CC(=O)N1CCC(C(=O)N2CC[C@@]3(S(=O)(=O)c4ccc(F)cc4)c4ccc(OCc5cc(F)ccc5Cl)cc4CC[C@@H]23)CC1 [Example 174, 1-{4-[(3aR,9bR)-7-[(2-chloro-5-fluorophenyl)methoxy]-9b-(4-fluorobenzenesulfonyl)-1H,2H,3H,3aH,4H,5H,9bH-benzo[e]indole-3-carbonyl]piperidin-1-yl}ethan-1-one] | 0.026 µM |

— patent US20230295087A1, “AGONISTS OF ROR GAMMAt” (BRISTOL-MYERS SQUIBB COMPANY, priority 2019, published 2023)
